Data published in patent EP4574147A1, “COMPOSITION FOR PREVENTING, AMELIORATING, OR TREATING CANCER COMPRISING STEPPOGENIN AS ACTIVE INGREDIENT” (Kyungpook National University Industry-Academic Cooperation …, priority 2022, dated 2024).

Key:
[1] = test system: Lewis lung carcinoma (LLC)-allografted tumor models; assay: Lewis lung carcinoma allograft tumor model with immunohistochemical analysis; type: in vivo, C57BL/6J mice; settings: for average body weights between the groups during the administration period: intraperitoneal (FIG. 6b)
Experimental: Six-week-old adult male C57BL/6J mice (SLC, Japan) were used and housed in a specific pathogen-free facility with an individual ventilation system at Kyungpook National University.
To manufacture Lewis lung carcinoma (LLC)-allografted tumor models, LLC cell suspensions (5 × 10^5 cells in 200 µL of serum-free culture medium) were subcutaneously transplanted into the dorsal flank area of 6-week-old male C57BL/6J mice. After inoculating the LLC cells, the mice were administered 17-AAG (25 mg/kg) or steppogenin (2 mg/kg) via intraperitoneal injection at various time points. Next, tumor volumes were measured according to the following formula: V = 0.5 × A × B^2, where A and B represent the longest and shortest dimensions, respectively. Finally, the mice were anesthetized and tissues were collected for further analysis.
For immunohistochemical analysis, collected tumor or tissue samples were fixed in 4% paraformaldehyde and embedded in tissue-freezing medium (Leica, Wetzlar, Germany). Frozen blocks were cut into 10 µm sample sections, blocked with 3% BSA in PBST (0.3% Triton X-100 in PBS), and incubated overnight at 4 °C with appropriate primary antibodies. Primary antibodies were as follows: anti-CD34 (Boster Bio, CA, USA), anti-DLL4 (R&D Systems, MN, USA), anti-pimonidazole (Hypoxyprobe-1, HPI, MA, USA), anti-CD3 (Abcam), anti-CD4 (Invitrogen), and anti-CD8 (Invitrogen). After several washes, the samples were incubated with recommended fluorophore-tagged secondary antibodies for 1 hour at room temperature. Next, cell nuclei were stained using Antifade Mounting Medium containing DAPI (Vector Laboratories, Burlingame, CA). Immunofluorescence images were acquired using a Zeiss confocal microscope (Carl Zeiss, Germany). Next, pimonidazole hydrochloride (60 mg/kg; Hypoxyprobe-1, HPI) was injected intravenously through the tail vein of mice and anesthetized 90 minutes later. Finally, tumor tissues were collected for further analysis.
To determine whether steppogenin induces vascular normalization, T-cell infiltration in tumor tissues was examined.

HEK293T cells [2] = assay: Cell counting kit-8 assay (cell viability under hypoxic conditions); type: cell-based, human; settings: hypoxia, compared to vehicle treatment (FIG. 3a)
Experimental: HEK293T cells were seeded at a density of 5 × 10^3 cells/well in 96-well plates and cultured at 37°C for 24 h. After 24 hours, the natural compounds were diluted in the medium according to the concentration and replaced. Cell viability was determined after exposure to hypoxic conditions for 24 h using the Cell Counting Kit-8 (DOJINDO, Rockville, MD, USA) according to the manufacturer's instructions, and measured using a microplate reader (Infinite M200 Pro; TECAN, Mannedorf, Switzerland) at 450 nm.
To test the inhibitory activity of 70 natural compounds on HIF-1 and DLL4 activity, their cytotoxic effects on immortalized normal cells were first tested under hypoxia conditions. In particular, under these conditions, HEK293T cells were treated with compounds at various concentrations (0.1 to 10 µM).

HIF-1α [3] = assay: HRE-luciferase dual-luciferase assay (HIF-1α promoter reporter activity); type: cell-based, human
Experimental: (§1) To perform the HRE-luciferase assay, HEK293T cells were seeded in a 96-well plate at a density of 5×10^3 cells/well and cultured at 37°C. Next, cells were co-transfected with pGL3-HRE-luciferase plasmid and pRL-SV40 Renilla plasmid containing 5 copies of HRE of human VEGF gene using a vivamagic transfection reagent (Vivagen, Seongnam, Korea) (Kwon et al., 2015). After 24 h, cells were pretreated with various concentrations of natural compounds for 1 h and then incubated under hypoxia conditions for 24 h. To perform the DLL4-luciferase assay, EA.hy926 cells were seeded in 24-well plates at a density of 4 × 10^4 cells/well and cultured at 37 °C for 24 h. Cells were co-transfected with pGL3-DLL4 luciferase and pRL-SV40 Renilla plasmids using Lipofectamine 2000 (Invitrogen) and cultured at 37°C for 24 h. Next, the cells were incubated with various concentrations of natural compounds for 1 h and then incubated for 24 h in the presence or absence of VEGF (10 ng/mL). The luminescence of HRE- and DLL4-promoter activities was detected using a microplate reader and the Dual-Luciferase Assay Kit (Promega, Madison, WI, USA) according to the manufacturer's instructions. The luciferase activity of the natural compounds was normalized to Renilla luciferase activity.
To select potential HIF-1α inhibitors, the effects of 70 natural compounds were tested on HIF-1α promoter reporter activity using a dual-luciferase assay.

HIF-1α [4] = assay: Western blot analysis of HIF-1α protein expression under hypoxia; type: cell-based, human; settings: for HIF-1α protein levels: dose-dependent, maximum dose 3 µM (FIG. 4a)
Experimental: (§2) Proteins were extracted from cultured cells using RIPA lysis buffer (Thermo Scientific, Waltham, MA, USA). The protein extracts were separated using SDS-PAGE and transferred to nitrocellulose membranes (Whatman, Maidstone, England). The membranes were blocked with 5% skim milk in Tris-buffered saline containing 0.1% Tween-20 for 1 hour at room temperature. After blocking, the membranes were incubated with specific primary antibodies overnight at 4°C, and then incubated with secondary antibodies for 1 hour at room temperature. Proteins were detected using the Enhanced Chemiluminescence Kit (Bio-Rad, Hercules, CA, USA) according to the manufacturer's instructions. Primary antibodies against HIF-1α (BD Biosciences, San Diego, CA, USA), VEGF (Santa Cruz Biotechnology, Santa Cruz, CA, USA), CXCR4 (Abcam, Cambridge, UK), CA9 (Abcam), DLL4 (Santa Cruz Biotechnology), NOTCH1 (Thermo Scientific), and β-actin (Santa Cruz Biotechnology) were used.
To determine the effect of the selected natural compounds on HIF-1α protein expression, Western blotting was performed on HEK293T cells. […] Accordingly, the effect of five compounds with HIF-1α inhibitory activity on DLL4 reporter activity in ECs was also investigated. […] Therefore, Compound #57 was selected as a potential inhibitor of HIF-1α and DLL4.

DLL4 [5] = assay: DLL4-luciferase dual-luciferase assay in EA.hy926 cells with VEGF; type: cell-based, human
Experimental: as §1

DLL4 [6] = assay: Western blot analysis of VEGF-induced DLL4 protein level in endothelial cells; type: cell-based, human
Experimental: as §2

HEK293T cells [7] = assay: Lactate dehydrogenase cytotoxicity assay; type: cell-based, human; settings: LDH release, hypoxia 24 h, compared to vehicle treatment (FIG. 3b)
Experimental: HEK293T cells were seeded at 2 × 10^3 cells/well in 96-well plates and cultured at 37 °C for 24 h. Next, the cells were treated with various concentrations of steppogenin for 24 h under hypoxia conditions. Lactate dehydrogenase (LDH) release values were evaluated using the Cytotoxicity LDH Assay Kit-WST (DOJINDO) according to the manufacturer's instructions. Cytotoxicity was measured using a microplate reader (Infinite M200 Pro; TECAN) at 490 nm.

HIF-1α [8] = assay: Immunofluorescence staining of intranuclear HIF-1α; type: cell-based, human; settings: A549 cells, hypoxia 4 h, immunofluorescence (FIG. 4b)
Experimental: Cells were seeded at a density of 2 × 10^4 - 3 × 10^4 cells/well on coverslips of 4-well plates and cultured for 24 h. For HIF-1α staining, A549 cells were treated with various compounds and incubated under normoxia or hypoxia conditions for 4 h. […] Next, the cells were fixed with 4% paraformaldehyde and permeabilized with 1% Triton X-100. The fixed cells were blocked with phosphate-buffered saline (PBS) containing 3% bovine serum albumin (BSA) and then incubated with primary antibodies overnight. After incubation, the cells were incubated with secondary antibodies for 1 hour and their nuclei were stained using DAPI. The stained cells were visualized using a confocal microscope (Leica TCS SP5 II Dichroic/CS, Leica, Germany).

[9] = test system: HIF-1α target genes VEGF, GLUT1, CXCR4, and CA9; assay: Real-time qRT-PCR of HIF-1α target gene mRNA; type: cell-based; settings: hypoxia (FIG. 4c)
Experimental: Total RNA was isolated using TRIzol Reagent (Invitrogen). The isolated RNA was used to synthesize cDNA using ReverTra Ace qPCR RT Master Mix (TOYOBO, Osaka, Japan) according to the manufacturer's protocol. The synthesized cDNA was mixed with gene-specific primers. Amplification real-time polymerase chain reaction (PCR) was performed using SYBR Green PCR Master Mix (Applied Biosystems, CA, USA). The heat cycle proceeded as follows: 50 °C for 2 min, 95 °C for 10 min, 40 cycles of denaturation at 95 °C for 15 s, and annealing at 60 °C for 1 min. Mean cycle threshold values were used to calculate mRNA expression with normalization to β-actin as an internal control.

[10] = test system: HIF-1α target genes VEGF, GLUT1, CXCR4, and CA9; assay: Western blot analysis of HIF-1α target gene protein levels; type: cell-based; settings: hypoxia, compared to vehicle control group (FIG. 4d)
Experimental: as §2

Notch1, and NICD = assay: Western blot analysis of VEGF-induced Notch1 and NICD protein levels; type: cell-based, human; settings: HUVECs (FIG. 5a)
Experimental: as §2

DLL4 [11] = assay: Immunofluorescence staining of DLL4 in endothelial cells; type: cell-based, human; settings: hypoxia, immunofluorescence (FIG. 5b)
Experimental: (§3) Cells were seeded at a density of 2 × 10^4 - 3 × 10^4 cells/well on coverslips of 4-well plates and cultured for 24 h. For HIF-1α staining, A549 cells were treated with various compounds and incubated under normoxia or hypoxia conditions for 4 h. For Ki-67 and DLL4 staining, EA.hy926 cells were treated with the same compounds and maintained under VEGF (20 ng/mL) treatment. Next, the cells were fixed with 4% paraformaldehyde and permeabilized with 1% Triton X-100. The fixed cells were blocked with phosphate-buffered saline (PBS) containing 3% bovine serum albumin (BSA) and then incubated with primary antibodies overnight. After incubation, the cells were incubated with secondary antibodies for 1 hour and their nuclei were stained using DAPI. The stained cells were visualized using a confocal microscope (Leica TCS SP5 II Dichroic/CS, Leica, Germany).

Ki-67 = assay: Immunofluorescence staining of Ki-67 in endothelial cells; type: cell-based, human; settings: hypoxia
Experimental: as §3

EA.hy926 cells = assay: Wound-healing migration assay; type: cell-based, human
Experimental: EA.hy926 cells were seeded at a density of 4 × 10^4 cells/well in 12-well plates and incubated for 24 hours. The cells were starved overnight in a serum-free medium and treated with mitomycin C (0.5 µg/mL) for 1 h. When confluent, a wound was made with a pipette tip and the cells were washed with a serum-free medium to remove cell debris. Next, the plates were treated with a conditioned medium collected from HEK293T cell cultures under hypoxia conditions treated with steppogenin. Wound closure was monitored and photographs were taken at 0 h and 8 h. Cell migration was measured by calculating the wound area between 0 h and 8 h.

EA.hy 926 cell = assay: Spheroid sprouting assay; type: cell-based, human; settings: VEGF treatment, 2 days (FIG. 5d)
Experimental: EA.hy 926 cell suspension (5×10^3 cells) was distributed on the lid of a 100 mm dish using a hanging-drop method and maintained for 24 hours. The next day, spheroids were harvested and mixed with Methocel stock solution containing 20% FBS. Next, spheroids containing Methocel solution were seeded in 24-well plates. After incubation at 37°C for 30 minutes, VEGF or steppogenin was added to the polymerized Methocel solution and incubated for 2 days.

[12] = 17-AAG 25 mg/kg, steppogenin 2 mg/kg
[13] = ECs, VEGF treatment, screening (FIG. 2c)
[14] = immunohistochemical staining, compared to control group, 17-AAG 25 mg/kg, steppogenin 2 mg/kg (FIG. 6c)
[15] = tumor tissues, steppogenin 2 mg/kg (FIG. 6e)

## C=CCNC1=C2C[C@@H](C)C[C@H](OC)[C@H](O)[C@@H](C)/C=C(\C)[C@H](OC(N)=O)[C@@H](OC)/C=C\C=C(/C)C(=O)NC(=CC1=O)C2=O [Compound 17-AAG, tanespimycin, reference compound]
[1]; [12]
  average body weights between the groups during the administration period: no significant difference

## O=C1C[C@@H](c2ccc(O)cc2O)Oc2cc(O)cc(O)c21 [steppogenin, (2S)-2-(2,4-dihydroxyphenyl)-5,7-dihydroxy-2,3-dihydrochromen-4-one]
HEK293T cells [2]
  dose-dependent cell viability: not altered
HIF-1α [3]; 0.1 to 10 µM, dose-dependent, hypoxia (FIG. 3c)
  HRE-luciferase reporter activity: significantly inhibited
HIF-1α [3]; HEK293T cells, hypoxia 24 h, screening (FIG. 2a)
  HRE-luciferase activity compared to the hypoxic vehicle (DMSO) control group: < 70%
HIF-1α [3]; Homo sapiens, 72 h, HRE-luciferase reporter, hypoxia (FIG. 3d), read-out: half-maximal inhibitory concentration (IC50) for HIF-1α activity
  IC50: 0.56 ± 0.043 µM
HIF-1α [4]; A549, hypoxia
  HIF-1α protein levels: significantly inhibited
HIF-1α [4]; ARPE19, hypoxia
  HIF-1α protein levels: significantly inhibited
HIF-1α [4]; HEK293T cells, hypoxia, screening of selected compounds (FIG. 2b)
  HIF-1α protein expression: inhibited
HIF-1α [4]; HEK293T, hypoxia
  HIF-1α protein levels: significantly inhibited
DLL4 [5]; 0.3 to 10.0 µM, VEGF-treated (FIG. 3e)
  DLL4-luciferase reporter activity: significantly reduced
DLL4 [5]; [13]
  DLL4 luciferase activity induced by VEGF: significantly suppressed
DLL4 [5]; Homo sapiens, EA.hy 926, EA.hy926 cells (FIG. 3f)
  IC50: 8.46 ± 1.08 µM
DLL4 [6]; [13]
  DLL4 protein level induced by VEGF: significantly suppressed
DLL4 [6]; HUVECs (FIG. 5a)
  VEGF-induced DLL4 protein levels: dose-dependently reduced
HEK293T cells [7]
  cytotoxicity: not altered
HIF-1α [8]
  intranuclear expression of HIF-1α: decreased
[9]
  mRNA expression of CA9: inhibited
  mRNA expression of CXCR4: inhibited
  mRNA expression of GLUT1: inhibited
  mRNA expression of VEGF: inhibited
[10]
  protein levels of CA9: suppressed
  protein levels of CXCR4: suppressed
  protein levels of VEGF: suppressed
Notch1, and NICD
  VEGF-induced NICD protein levels: dose-dependently reduced
  VEGF-induced Notch1 protein levels: dose-dependently reduced
DLL4 [11]
  DLL4 expression in ECs: dramatically suppressed
Ki-67
  level of Ki-67, a cell proliferation marker: decreased
EA.hy926 cells; HUVECs, hypoxia, 0 h to 8 h (FIG. 5c)
  wound closure: significantly reduced
EA.hy926 cells; hypoxia (FIG. 5c)
  number of migrating cells: significantly reduced
EA.hy 926 cell
  germination ability (number of germinations) in 3D EC spheroid cultures: significantly inhibited
[1]; [12]
  average body weights between the groups during the administration period: no significant difference
[1]; 17-AAG 25 mg/kg, steppogenin 2 mg/kg, intraperitoneal, days 7, 9, 11, 13, 15 (FIG. 6a)
  tumor growth: significantly inhibited
[1]; [14]
  HIF-1α expression level in tumors: significantly reduced
  hypoxic region in tumors: significantly reduced
[1]; steppogenin 2 mg/kg, compared to control tissue (FIG. 6d)
  microvessel density analyzed using CD34 antibody: significantly reduced
[1]; [15]
  infiltration of CD3+ T cells: significantly increased
  ratio of CD8+ to CD4+ T cells in tumors: decreased
